Experimental data published in patent publication US10105380B2, “Glycoclusters and their pharmaceutical use as antibacterials” (priority 2013, dated 2018).
Values after ≈ are worked out from the molar mass of the structure shown. Like-named read-outs stand apart in the source and are kept apart here.

Key:
PA-IL [1] = biological target: T1, PA-IL (Pseudomonas aeruginosa, UniProt Q05097); assay: Kd determination on DDI microarray (Langmuir isotherm, Scatchard plot); assay type: binding
Procedure: The methodologies for Kd and IC50 value determination have been previously reported (Gerland, B. et al., (2012) Bioconjugate Chem. 23, 1534-1547; Zhang, J. et al., (2009) Chem. Comm., 6795-6797; Zhang, J. et al., (2009) Biosens. Bioelectron. 24, 2515-2521).
CaCl2 (1 μg/mL final concentration) was added. PA-IL at the desired final concentration was then added. 2 μL of each solution (corresponding to the desired PA-IL concentration) were poured in the corresponding microwells. The slide was incubated (3 h, 37° C.) in a water vapor saturated chamber and finally washed in PBS-Tween 20 (0.02%, 5 min, 4° C.) and dried. A Microarray scanner, GenePix 4100A software package (Axon Instruments; λex 532/635 nm and λem 575/670 nm) was used for fluorescent imaging of both fluorophore (Cy3 and Alexa 647). The average of the mean fluorescence signal was calculated from eight spots. The resulting Langmuir Isotherms were linearised using Scatchard plot to give the Kd values at the ordonnate intercept.

PA-IL [2] = biological target: T1, PA-IL; assay: Enzyme Linked Lectin Assay (ELLA), PAA-galactose coated plates; assay type: binding; conditions: for ELLA βAr: IC50 of Gal-ArNO2 over IC50 of the molecule
Procedure: (§1) The binding of PA-IL to galactoclusters was probed as the ability of the clusters to inhibit the binding of PA-IL to rabbit erythrocytes (Hemagglutination inhibition assay, HIA) or to surface bound galactosyl modified polyacrylamide either by Surface Plasmon Resonance (SPR), Enzyme Linked Assay (ELLA) Inhibition was measured with competitive assays. In HIA experiments, the minimal inhibitory concentration (MIC) is the minimal concentration of galactocluster that inhibit the hemagglutination of rabbit erythrocytes in presence of the lectin. The lower the MIC the highest is the binding of the galactocluster to the lectin. SPR and ELLA were used to determine the IC50 value. […] The lower the IC50 value as determined by SPR (^SPRIC50) and ELLA (^ELLAIC50), the higher is the binding of PA-IL to the galactocluster.
96-Well microtiter plates (NuncMaxisorb) were coated with α-PAA-Gal(PAA=polyacrylamide) for PA-IL (Lectinity Holding, Inc.): 100 μL of 5 μg·mL^−1 in carbonate buffer, pH 9.6 for 1 h at 37° C., then blocking at 37° C. for 1 h with 100 μL per well of 3% (w/v) bovine serum albumin (BSA) in phosphate buffer solution (PBS). Lectin solutions (75 μL) were diluted (1:2) starting from 30 μg·mL^−1. After 1 h incubation at 37° C. and three washes with T-PBS (PBS that contained 0.05% Tween 20), horseradish peroxidase (HRP)-streptavidin conjugate (100 μL; dilution 2:8000; Boehringer-Mannheim) was added and left for 1 h at 37° C. Coloration was developed by using 100 μL per well of 0.05% phosphate/citrate buffer that contained o-phenylenediaminedihydrochloride ([…]) and urea hydrogen peroxide (0.4 mg·mL^−1) (OPD kit, Sigma-Aldrich) for 15 min and stopped with sulfuric acid (50 μL, 30%). Absorbance was then read at 490 nm using a microtiter plate reader (BioRad 680). The concentration of biotinylatedlectins was determined by plotting the relative absorbance versus lectin concentration. The concentration that led to the highest response in the linear area was selected as the standard lectin concentration for the subsequent inhibition experiments.
Microtiter plates were modified with PAA-galactose. Slides were incubated with increasing concentration of galactosylated ligands. […] The lowest the IC50 as determined the strongest is the binding of the studied molecule to PA-IL. ELLA: This IC50 will be referred here after ^ELLAIC50. SPR: This IC50 will be referred here after ^SPRIC50.

PA-IL [3] = biological target: T1, PA-IL; assay: Surface Plasmon Resonance (SPR) inhibition; assay type: binding; conditions: for SPR βAr: IC50 of Gal-ArNO2 over IC50 of the molecule
Procedure: as §1
SPR inhibition experiments were performed using a Biacore 3000 instrument at 25° C. Measurements were carried out on two channels with two immobilized sugars: α-L-fucose (channel 1) and α-D-galactose (channel 2). Immobilization of sugars was performed at 25° C. using running buffer (HBS) at […]. Immobilization on each channel (CM5 Chip) was performed independently as follows. First, the channel was activated by injecting a fresh mixture of EDC/NHS (35 μL, 420 s). Then a solution of streptavidin ([…] in 0.1 mM AcONa pH 5 buffer) was injected (50 μL, 600 s). The remaining reactive species were quenched by injecting ethanolamine (1M, 35 μL, 420 s) into the solution. Finally, a solution of the desired biotinylated-polyacrylamide-sugar (lectinity, […]) was coated onto the surface (50 μL, 600 s) through streptavidin-biotin interaction. […] Inhibition studies consisted of the injection (150 μL, 10 μL·min^−1, dissociation 120 s) of incubated (>1 h, RT) mixtures of PAIL ([…]) and various concentrations of inhibitor (twofold cascade dilutions). […] The CM5 chip was fully regenerated by successive injections of d-galactose (2×30 μL, 100 mm in running buffer). Binding was measured as RU over time after blank subtraction, and data were then evaluated using the BIAevaluation Software version 4.1. For IC50 evaluation, the response (Req-fitted) was considered to be the amount of lectin bound to the carbohydrate-coated surface at equilibrium in the presence of a defined concentration of inhibitor. Inhibition curves were obtained by plotting the percentage of inhibition against the inhibitor concentration (on a logarithmic scale) by using Origin 7.0 software (OriginLab Corp.), and IC50 values were extracted from sigmoidal fit of the inhibition curve.
Microtiter plates were modified with PAA-galactose. […] The lowest the IC50 as determined the strongest is the binding of the studied molecule to PA-IL. […]

PA-IL [4] = biological target: T1, PA-IL; assay type: binding; conditions: for Potency vs EG3-O-Gal: ratio of IC50Lac to mono EG3-O-galactose (entry 1); for Potency vs AcNPhe-O-Gal: ratio of IC50Lac to mono-aromatic galactose 31 (entry 2); for β: Table 6, relative potency vs monovalent ligand 31
Procedure: IC50 Determination with “on Chip” Biological Recognition
Lectin PA-IL (0.12 μM final concentration), BSA (2% final concentration) and CaCl2 (1 μg/mL final concentration) was diluted in PBS1× (pH=7.4). In each micro tube was added the inhibitor lactose at the desired final concentration (0; 1.10^−5; 1.10^−4; 5.10^−4; 1.10^−3; 5.10^−3; 1.10^−2; 5.10^−2; 0.1; 1; 5; 10; 50; 10^2; 5.10^2; 10^3; 5.10^3; 10^4; 10^5; 3.10^5).
2 μL of each solution were deposited in the corresponding microwells and the slide was incubated at 37° C. in a water vapor saturated chamber for 3 h. The washing steps are: PBS-Tween0.2% 5 min at 4° C., then briefly in deionized water and dried by centrifugation.
Slide was scanned at 532 nm then at 635 nm with the Microarray scanner, GenePix 4100A software package (Axon Instruments; λex 532/635 nm and λem 575/670 nm). The fluorescence signal of each conjugate was determined as the average of the mean fluorescence signal of sixty-four spots.
IC50 values were determined using “BioDataFit 1.02 program”. The model chosen was “Sigmoidal”: Y=a+(b−a)/[1+10^(x−c)]
with a=FImin, b=FImax, x=[…] and c=log(IC50). FImin/max is the minimum/maximum Alexa-647 fluorescence signal observed for a galactomimetic.
So the IC50 value was called IC50Lac.

PA-IL [5] = biological target: T1, PA-IL; assay: Hemagglutination inhibition assay (HIA), rabbit erythrocytes; assay type: cell-based
Procedure: as §1
Hemagglutination inhibition assays (HIA) were performed in U-shaped 96-well microtitre plates. Rabbit erythrocytes were purchased from Biomérieux and used without further washing. Erythrocytes were diluted to a 8% solution in NaCl (100 mM). PA-IL solutions of 3 μM were prepared in TRIS-HCl 20 mM (TRIS=tris(hydroxymethyl)aminomethane), NaCl 100 mM, and CaCl2 100 mM. The hemagglutination unit (HU) was first obtained by addition of the 4% erythrocyte solution (50 μL) to aliquots (50 μL) of sequential (twice) lectin dilutions. The mixture was incubated at 25° C. for 30 min. The HU was measured as the minimum lectin concentration required to observe hemagglutination. For the following lectin-inhibition assays, lectin concentrations of 4 HU were used. […] Subsequent inhibition assays were then carried out by the addition of lectin solution (25 μL, at the required concentration) to sequential dilutions (50 μL) of glycoclusters, monomer molecules, and controls. These solutions were incubated at 37° C. for 30 min, then 8% erythrocyte solution (25 μL) was added, followed by an additional incubation at 37° C. for 1 h. The minimum inhibitory concentration for each molecule was determined for each duplicate.

[6] = DNA-tagged galactoclusters G1-G24 on glycoarray
[7] = DNA-tagged galactoclusters G1-G24 on glycoarray, read-out: IC50
[8] = lactose concentration required to displace 50% of PA-IL from the glycocluster, higher = better binding, read-out: IC50Lac
[9] = IC50 of Gal-OMe over IC50 of the molecule

T1 sequence (Q05097 2-122): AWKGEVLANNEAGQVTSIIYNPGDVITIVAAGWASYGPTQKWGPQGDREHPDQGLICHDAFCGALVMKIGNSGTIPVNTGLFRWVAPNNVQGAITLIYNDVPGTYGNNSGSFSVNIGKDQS

Row | Compound | Kd (PA-IL [1]; [6]) | IC50 (PA-IL [4]; [7]) | also measured
1 | Man(PSEG2MTzproNCONapht-OGal)4 [G22] | 0.02 µM | – | –
2 | Man(POProTzEG3-O-Gal)4 | – | – | ELLA βAr (PA-IL [2]): 1.2; SPR βAr (PA-IL [3]): 1.7
3 | Man(EG2MTzAcNPhe-CH2-SGal)4 [G13] | 0.085 µM | 12000 µM | –
4 | Man(EG3MTzAcNPhe-CH2-SGal)4 [G15] | 0.076 µM | 13300 µM | –
5 | Man(EG2MTzproNCONapht-OGal)4 [G21] | 0.014 µM | – | –
6 | Man(POEG2MTzEG3-Gal)4 [compound 36] | – | – | IC50 (PA-IL [4]; [8]): 24 µM; Potency vs EG3-O-Gal (PA-IL [4]): 4.8; Potency vs AcNPhe-O-Gal (PA-IL [4]): 1.5
7 | Man(PSEG3MTzAcNPh-SGal)4 [G12] | 0.07 µM | 19700 µM | –
8 | Man(PSEG3MTzAcNPhe-CH2-SGal)4 [G16] | 0.075 µM | 18100 µM | –
9 | Man(PSEG3MTzAcNPhe-CH2-Gal)4 [G8] | 0.125 µM | 8400 µM | –
10 | Man(PSEG3MTzproNCONapht-OGal)4 [G24] | 0.031 µM | – | –
11 | Man(PSEG2MTzAcNPhe-CH2-SGal)4 [G14] | 0.071 µM | 18500 µM | –
12 | Man(PSEG3MTzAcNPh-Gal)4 [G4] | 0.076 µM | 17700 µM | –
13 | Man(POEG2MTzAcNPhe-O-Gal)4 [compound 32] | – | – | IC50 (PA-IL [4]; Table 6, DNA-galactomimetics, lactose as inhibitor, read-out: microarray IC50Lac): 4220 µM; β (PA-IL [4]): 264; IC50 (PA-IL [4]; [8]): 4220 µM; Potency vs EG3-O-Gal (PA-IL [4]): 844; Potency vs AcNPhe-O-Gal (PA-IL [4]): 264; Kd (PA-IL [1]; text b577, microarray, Langmuir isotherm): 0.083 µM
14 | Man(EG3MTzAcNPh-SGal)4 [G11] | 0.049 µM | 63900 µM | –
15 | Man[POTHME(MTzAcNPhe-O-Gal)2]4 [compound 35] | – | – | IC50 (PA-IL [4]; [8]): 1810 µM; Potency vs EG3-O-Gal (PA-IL [4]): 361; Potency vs AcNPhe-O-Gal (PA-IL [4]): 113
16 | Man(EG3MTzproNCONapht-OGal)4 [G23] | 0.048 µM | 68000 µM | –
17 | Man(EG3MTzAcNPhe-CH2-Gal)4 [G7] | 0.085 µM | 9100 µM | –
18 | Man(POProTzAcNPhe-O-Gal)8 [compound 34] | – | – | IC50 (PA-IL [4]; [8]): 6800 µM; Potency vs EG3-O-Gal (PA-IL [4]): 1361; Potency vs AcNPhe-O-Gal (PA-IL [4]): 425
19 | Man(PSEG3MTzproNCOBisphe-OGal)4 [G20] | 0.043 µM | 81600 µM | –
20 | Man(POProTzEG3-O-Gal)4 [C3] | – | – | β (PA-IL [4]): 1.8; IC50 (PA-IL [4]; [8]): 29 µM; Potency vs EG3-O-Gal (PA-IL [4]): 5.8; Potency vs AcNPhe-O-Gal (PA-IL [4]): 1.8
21 | Man(EG2MTzproNCOBisphe-OGal)4 [G17] | 0.02 µM | – | –
22 | Man(PSEG2MTzAcNPhe-CH2-Gal)4 [G6] | 0.17 µM | 5700 µM | –
23 | Man(PSEG2MTzAcNPh-SGal)4 [G10] | 0.055 µM | 38200 µM | –
24 | Man(EG3MTzproNCOBisphe-OGal)4 [G19] | 0.046 µM | 68900 µM | –
25 | O=[N+]([O-])c1ccc(O[C@@H]2O[C@H](CO)[C@H](O)[C@H](O)[C@H]2O)cc1 [Gal-ArNO2, 1-O-p-nitrophenyl-β-D-galactoside] | – | – | MIC (PA-IL [5]; minimal inhibitory concentration of hemagglutination, PA-IL 3 μM): 2000 µM (≈ 603 µg/mL); βAr (PA-IL [5]; ratio of MIC of Gal-OArNO2 over MIC of the molecule): 1.0; βMe (PA-IL [5]; ratio of MIC of Gal-OMe over MIC of the molecule): 8.0; IC50 (PA-IL [2]): 33 µM; ELLA βAr (PA-IL [2]): 1.0; ELLA βMe (PA-IL [2]; [9]): 5.5; IC50 (PA-IL [3]): 6.7 µM; SPR βAr (PA-IL [3]): 1.0; SPR βMe (PA-IL [3]; [9]): 7.3
